Results on two compounds are retold here after patent US20090306053A1, “Highly selective rho-kinase inhibitor” (priority 2005, published 2009).

A word on the IC50: it is the concentration at which inhibition is half-maximal.

What all share (format): biochemical
The target in one test is Purified rat PKC. Briefly: PKC kinase assay (Kinase-Glo ATP consumption). To be noted: 1 μM ATP; read-out: Kinase Inhibiting Activity (IC50) PKC. On the procedure:
Purified rat PKC (containing PKCα, β, and γ and small amounts of δ and ξ isoforms, Promega) was used to evaluate its activity to phosphorylate a substrate peptide (AAKIQASFRGHMARKK, Promega).
(§1) In a system of the total volume of 50 μL, the reaction of the above-mentioned enzyme (5 ng) was carried out at room temperature for 80 minutes in the presence of 20 mM of Tris-HCl (pH 7.5), 20 mM of magnesium chloride, 0.4 mM of calcium chloride, 0.1 mg/mL of BSA, 0.25 mM of EGTA, 0.5 mg/mL of phosphatidylserine (Sigma), 0.05 mg/mL of 1,2-dioctanoyl-sn-glycerol (Sigma), 10 μM of the above peptide, and 1 μM of ATP. After the kinase reaction, the luminescence intensity corresponding to the amount of ATP in the reaction system was measured using a luciferase reagent (Kinase-Glo Luminescent Kinase Assay kit, Promega) with a chemiluminescence measurement apparatus (MicroLumat, Berthold Technologies). The amount of ATP consumed by the phosphorylation reaction was calculated by comparison with the luminescence intensity in the system when the kinase reaction was not carried out.
(§2) With this system, the kinase reaction was carried out in the presence of a compound at various concentrations, and the IC50 value of the compound was determined based on the resulting compound concentration-response curve for ATP consumption.
A general note: Kinase-Glo measures the ATP left after a reaction by luminescence.

The target of a further test is T1, Purified bovine PKGα (Bos taurus, UniProt P00516).
T1 construct: Purified bovine PKGα (Promega); purchased Promega
T1 sequence (P00516 1-671): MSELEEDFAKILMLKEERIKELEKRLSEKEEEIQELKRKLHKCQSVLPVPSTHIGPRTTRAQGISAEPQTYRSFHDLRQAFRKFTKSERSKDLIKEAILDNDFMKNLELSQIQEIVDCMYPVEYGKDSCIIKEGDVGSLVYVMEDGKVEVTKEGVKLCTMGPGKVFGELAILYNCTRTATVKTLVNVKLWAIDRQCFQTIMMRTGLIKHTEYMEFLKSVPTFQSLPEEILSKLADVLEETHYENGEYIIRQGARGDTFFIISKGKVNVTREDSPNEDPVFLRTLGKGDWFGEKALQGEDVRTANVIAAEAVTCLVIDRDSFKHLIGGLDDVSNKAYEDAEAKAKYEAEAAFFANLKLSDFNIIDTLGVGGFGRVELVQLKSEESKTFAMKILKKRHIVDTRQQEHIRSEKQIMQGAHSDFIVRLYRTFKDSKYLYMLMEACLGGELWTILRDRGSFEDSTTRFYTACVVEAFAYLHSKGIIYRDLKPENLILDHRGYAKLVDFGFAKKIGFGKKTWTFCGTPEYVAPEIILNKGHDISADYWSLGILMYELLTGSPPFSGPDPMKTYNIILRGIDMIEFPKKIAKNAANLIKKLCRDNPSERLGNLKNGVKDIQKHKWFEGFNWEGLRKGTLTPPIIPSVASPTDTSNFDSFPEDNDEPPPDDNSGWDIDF
Briefly: PKG kinase assay (Kinase-Glo ATP consumption). To be noted: for IC50: 1 μM ATP, read-out: Kinase Inhibiting Activity (IC50) PKG; for Realative Inhibitory Activity PKG: relative ratio to ROCKII (=1.0), based on IC50 values. On the procedure:
Purified bovine PKGα (Promega) was used to evaluate its activity to phosphorylate a substrate peptide (RKISASEF, Promega).
as §1, with “enzyme (64” for “enzyme (5”, “of 40” for “of 20”, “chloride, 10 μM” for “chloride, 0.4 mM”, “of cGMP” for “of calcium chloride, 0.1 mg/mL of BSA, 0.25 mM of EGTA, 0.5 mg/mL of phosphatidylserine”, “(Sigma), 100” for “(Sigma), 0.05 mg/mL of 1,2-dioctanoyl-sn-glycerol (Sigma), 10”
as §2
The ROCKII-inhibiting activity of a compound to be tested was defined as 1.0, and the inhibitory activities of the compound against kinases (PKA, PKG, CaMKII, and AuroraA) other than ROCKII were calculated as relative ratios to the ROCKII-inhibiting activity, based on the IC50 values calculated using the above-described evaluation system.

The target in a further test is T2, Recombinant human Ab1 (Homo sapiens, UniProt P00519).
T2 construct: from 27th to 1149th amino acids; purchased Upstate
Briefly: Abl kinase assay (Kinase-Glo ATP consumption). To be noted: 1 μM ATP; read-out: Kinase Inhibiting Activity (IC50) Abl. On the procedure: Recombinant human Ab1 (from 27th to 1149th amino acids, Upstate) was used to evaluate its activity to phosphorylate a substrate peptide (EAIYAAPFAKKK, Upstate).
as §1, with “enzyme (20” for “enzyme (5”, “of 50” for “of 20”, “7.5), 10” for “7.5), 20”, “chloride, 50” for “chloride, 0.4 mM of calcium chloride, 0.1 mg/mL of BSA, 0.25 mM of EGTA, 0.5 mg/mL of phosphatidylserine (Sigma), 0.05 mg/mL of 1,2-dioctanoyl-sn-glycerol (Sigma), 10”
as §2

The next test has as its target T3, Recombinant human Src (Homo sapiens, UniProt P12931).
T3 construct: purchased Upstate
Briefly: Src kinase assay (Kinase-Glo ATP consumption). To be noted: 0.5 μM ATP; read-out: Kinase Inhibiting Activity (IC50) Src. On the procedure: Recombinant human Src (Upstate) was used to evaluate its activity to phosphorylate a substrate peptide (KVEKIGEGTYGVVYK, Upstate).
In a system of the total volume of 50 μL, the reaction of the above-mentioned enzyme (6 Units) was carried out at room temperature for 80 minutes in the presence of 40 mM of MOPS-NaOH (pH 7.5), 10 mM of magnesium chloride, 25 mM of manganese chloride, 300 μM of the above peptide, and 0.5 μM of ATP. After the kinase reaction, the luminescence intensity corresponding to the amount of ATP in the reaction system was measured using a luciferase reagent (Kinase-Glo Luminescent Kinase Assay kit, Promega) with a chemiluminescence measurement apparatus (MicroLumat, Berthold Technologies). The amount of ATP consumed by the phosphorylation reaction was calculated by comparison with the luminescence intensity in the system when the kinase reaction was not carried out.
as §2

T2 sequence (P00519 27-1149 isoform P00519-2): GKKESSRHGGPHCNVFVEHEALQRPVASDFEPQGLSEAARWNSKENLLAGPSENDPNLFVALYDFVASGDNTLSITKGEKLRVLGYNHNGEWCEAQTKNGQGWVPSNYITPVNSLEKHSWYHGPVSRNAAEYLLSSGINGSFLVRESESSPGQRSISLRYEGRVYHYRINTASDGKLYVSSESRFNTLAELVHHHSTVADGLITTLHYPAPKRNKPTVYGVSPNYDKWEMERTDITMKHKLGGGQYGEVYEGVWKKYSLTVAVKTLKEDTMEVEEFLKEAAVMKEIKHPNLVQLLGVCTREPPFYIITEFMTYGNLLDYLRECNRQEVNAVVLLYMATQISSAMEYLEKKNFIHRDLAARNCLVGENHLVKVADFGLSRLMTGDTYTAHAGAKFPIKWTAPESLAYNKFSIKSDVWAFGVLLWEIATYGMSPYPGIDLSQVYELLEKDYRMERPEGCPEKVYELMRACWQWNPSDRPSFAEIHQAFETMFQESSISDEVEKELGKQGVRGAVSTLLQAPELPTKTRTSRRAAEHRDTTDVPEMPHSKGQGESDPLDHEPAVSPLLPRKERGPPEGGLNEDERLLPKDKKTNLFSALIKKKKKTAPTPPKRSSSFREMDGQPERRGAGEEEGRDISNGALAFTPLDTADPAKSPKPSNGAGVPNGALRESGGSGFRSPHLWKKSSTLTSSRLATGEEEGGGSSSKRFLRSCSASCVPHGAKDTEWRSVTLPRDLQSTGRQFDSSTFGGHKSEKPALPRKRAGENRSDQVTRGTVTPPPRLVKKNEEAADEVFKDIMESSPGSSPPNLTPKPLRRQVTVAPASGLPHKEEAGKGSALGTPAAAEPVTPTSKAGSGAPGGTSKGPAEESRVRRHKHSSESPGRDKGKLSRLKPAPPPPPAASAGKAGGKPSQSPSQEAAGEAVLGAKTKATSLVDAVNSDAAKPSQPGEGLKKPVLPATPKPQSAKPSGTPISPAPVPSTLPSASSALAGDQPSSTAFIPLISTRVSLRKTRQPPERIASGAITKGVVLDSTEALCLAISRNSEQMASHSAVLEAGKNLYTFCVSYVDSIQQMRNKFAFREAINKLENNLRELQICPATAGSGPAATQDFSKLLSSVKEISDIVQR

For the compound “2-(S)-1-(4-fluoroisoquinoline-5-sulfonyl)-4-glycyl-2-methylhomopiperazine dihydrochloride [Example 1]”, the IC50 at Purified rat PKC was over 100 µM; on Purified bovine PKGα it was 63.5 µM; on Recombinant human Ab1, over 100 µM; at Recombinant human Src, over 100 µM. In addition, the “Realative Inhibitory Activity PKG” value at Purified bovine PKGα was found to be 2117.

`CNCC(=O)N1CCCN(S(=O)(=O)c2cccc3cncc(F)c23)[C@@H](C)C1.Cl.Cl` [Example 2, 2-(S)-1-(4-fluoroisoquinoline-5-sulfonyl)-2-methyl-4-(N-methylglycyl)homopiperazine dihydrochloride]: the IC50 on Purified rat PKC was over 100 µM; at Purified bovine PKGα it was 28 µM; at Recombinant human Ab1, over 100 µM; at Recombinant human Src, over 100 µM. In addition, the “Realative Inhibitory Activity PKG” value on Purified bovine PKGα was 933.
